Calls of active or inactive are those of the source. Cut-off read from the data, not from the text of the source, for most assays here: actives have a measured EC50 and inactives only a lower limit.
Columns and labels:
[1] = NIH3T3 cell viability loss – ATP luminescence, mouse fibroblasts, counter-screen, dose response (AID 2010); assay type: functional, cell-based;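 note: cells exposed to compound for about 90 hours before reading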
[2] = Trypanosoma cruzi growth suppression in host cells – NIH3T3 host cells, beta-gal luminescence, confirmation (AID 2044); assay type: functional, cell-based;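 note: intracellular parasites grown in NIH/3T3 mouse fibroblasts as host cells; luminescent beta-galactosidase reporter signal from transgenic T. cruzi replicating inside host cells; inhibitors lower the luminescence signal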
Streptokinase A = biological target: T1, Streptokinase A (Streptococcus pyogenes serotype M1, UniProt P10520); assay: viability-normalized secreted streptokinase activity reduction – plasminogen activation absorbance, OD405, dose response (AID 1914); assay type: functional, Streptococcus pyogenes M1 GAS;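 note: secreted streptokinase activity via plasminogen activation per viability signal from cell pellet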
T1 sequence (P10520 whole entry): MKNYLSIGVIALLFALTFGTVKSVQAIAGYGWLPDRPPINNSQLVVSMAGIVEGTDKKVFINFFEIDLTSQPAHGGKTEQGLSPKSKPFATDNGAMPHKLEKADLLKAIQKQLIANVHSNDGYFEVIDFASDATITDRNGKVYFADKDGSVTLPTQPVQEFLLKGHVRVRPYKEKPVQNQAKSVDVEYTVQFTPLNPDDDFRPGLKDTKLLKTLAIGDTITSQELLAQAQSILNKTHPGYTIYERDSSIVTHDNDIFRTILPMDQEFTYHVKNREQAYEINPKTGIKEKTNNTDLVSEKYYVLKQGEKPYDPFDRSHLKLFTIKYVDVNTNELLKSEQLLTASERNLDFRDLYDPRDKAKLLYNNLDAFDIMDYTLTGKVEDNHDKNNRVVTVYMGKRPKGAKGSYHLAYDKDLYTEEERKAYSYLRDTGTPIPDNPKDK

[3] = tested on: Streptococcus sp. 'group A'; assay: Streptococcus pyogenes SK(-)GAS viability under kanamycin – luminescence, BacTiterGlo, confirmation, counter-screen for streptokinase expression inhibitor project, dose response (AID 1900); assay type: functional, organism-based
Streptococcus = assay: GAS UMAA2166 growth inhibition – luminescence, BacTiterGlo, counter-screen for streptokinase expression inhibitor project, dose response (AID 1915); assay type: functional, organism-based;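 note: potency for reduction of bacterial viability or growth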
[4] = Luminescence Cell-Based Dose Retest to Confirm Inhibitors of Cancer Stem Cells. [Related pubchem assays (depositor defined):AID2717, AID2721]; assay type: functional, Homo sapiens; details: Homo sapiens
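Throughout, for AC50: cells exposed to compound for roughly 70 hours or longer before luminescence read.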

| Structure (SMILES) | EC50 [1] | EC50 [2] | EC50 [3] | EC50 (Streptococcus) | further results |
| --- | --- | --- | --- | --- | --- |
| CCCOc1ccc(-c2nc(SCc3ccccc3)nc(O)c2C#N)cc1OC | 17.8 µM (active) | 3.11 µM (active) |  |  |  |
| O=C(N/N=C\c1ccc(F)cc1)c1ccc(Cn2cc(Br)c([N+](=O)[O-])n2)o1 | > 60 µM (not active) | 0.761 µM (active) |  |  |  |
| COc1ccc(CC(C)N2CCN(Cc3ccccc3)CC2)c(OC)c1 (stereo unspecified) | > 30 µM (not active) | 0.502 µM (active) |  |  |  |
| O=C(CSc1nnnn1-c1ccc(O)cc1)N1N=C(c2ccc3ccccc3c2)CC1c1ccccc1 (stereo unspecified) | > 60 µM (not active) | 2.08 µM (active) |  |  |  |
| COc1cc(OC)cc(C(=O)NC(=S)N2CCCCC2c2cccnc2)c1 (stereo unspecified) | > 60 µM (not active) | 0.769 µM (active) |  |  |  |
| CC1CC(NC(=O)c2c(O)n3ccsc3nc2=O)CC(C)(C)C1 (stereo unspecified) |  |  | 11.3 µM (active) | > 150 µM (not active) | EC50 (Streptokinase A): 14.5 µM (active) |
| CC1(C)CC2CC(C)(CN2S(=O)(=O)c2ccc(C(=O)Nc3ccc(Cl)c(S(=O)(=O)N4CCOCC4)c3)cc2)C1 (stereo unspecified) | 21.6 µM (active) | 2.22 µM (active) |  |  |  |
| CC(C)(C)c1cc(C(=O)NCCN2CCCC2)cc(C(C)(C)C)c1 | > 30 µM (not active) | 4.49 µM (active) |  |  |  |
| Cc1cc(N/N=C/c2ccccc2O)nc(-c2ccccc2O)n1 |  |  | 0.855 µM (active) | 2.9 µM (active) |  |
| CC(NC(=O)c1cccc(Cn2cc([N+](=O)[O-])cn2)c1)c1ccc(C(C)(C)C)cc1 (stereo unspecified) | > 60 µM (not active) | 2.59 µM (active) |  |  |  |
| CCCCn1c(O)c(N=NC(=O)c2ccccc2NS(=O)(=O)c2cccs2)c2ccccc21 |  |  | 21.8 µM (active) | 68.3 µM (active) | EC50 (Streptokinase A): > 150 µM (not active) |
| COc1ccc(NC(=O)CCN2CCN(C/C=C/c3ccccc3)CC2)cc1 | > 60 µM (not active) | 0.686 µM (active) |  |  |  |
| O=C(CNCCc1ccc(Cl)cc1)Nc1ccc(C(=O)N2CCCCC2)cc1 | > 60 µM (not active) | 0.502 µM (active) |  |  |  |
| CCc1ccc(OCCCCN(C)Cc2ccccc2)cc1 | > 60 µM (not active) | 0.213 µM (active) |  |  |  |
| CC(C)c1nc(NCc2ccccc2)c(C#N)c2c1CCCC2 |  |  | 4.75 µM (active) | 12.2 µM (active) | EC50 (Streptokinase A): 1.96 µM (active) |
| COc1ccc2sc(-c3ccc(N(C)C)cc3)c(-c3ccc4cc[nH]c4c3)c2c1 |  |  |  |  | AC50 [4]: 3.54 µM (active) |
| Fc1ccccc1C1c2[nH]c3ccccc3c2CCN1Cc1cccn1-c1ncccn1 (stereo unspecified) | > 60 µM (not active) | 1.07 µM (active) |  |  |  |
| O=C(Nc1ccc(Cl)cc1)Nc1ccccc1Sc1ncc([N+](=O)[O-])s1 |  |  |  |  | AC50 [4]: 4.23 µM (active) |
| Cc1cc(N2CCN(c3ccccc3Cl)CC2)n2cc(-c3ccccc3)nc2n1 |  |  | 11.5 µM (active) | 12 µM (active) | EC50 (Streptokinase A): > 150 µM (not active) |
| O=C(c1cc([N+](=O)[O-])cc([N+](=O)[O-])c1)N1CCN(Cc2ccc3c(c2)OCO3)CC1 | > 60 µM (not active) | 0.306 µM (active) |  |  |  |

| Structure (SMILES) | EC50 [1] | EC50 [2] | EC50 [3] | EC50 (Streptococcus) | further results |
| --- | --- | --- | --- | --- | --- |
| C/C(=N\Nc1nc2ccccc2s1)c1ccc2c(c1)OCO2 |  |  | 16.7 µM (active) | 65.6 µM (active) | EC50 (Streptokinase A): > 150 µM (not active) |
| N#Cc1c(N)nc(Sc2ccc(Cl)cc2)c(C#N)c1-c1ccccc1Cl |  |  | 4.24 µM (active) | > 150 µM (not active) | EC50 (Streptokinase A): 13.2 µM (active) |
| COc1cccc(-c2sc3ccc(OC)cc3c2C#CCCO)c1 |  |  |  |  | AC50 [4]: 2.79 µM (active) |
| Cc1cc(C)c(S(=O)(=O)c2cc(F)ccc2C)c(Cl)n1 | > 60 µM (not active) | 1.39 µM (active) |  |  |  |
| CN1CCN(CC(=O)C23CC4CC(CC(C4)C2)C3)CC1 | > 30 µM (not active) | 0.225 µM (active) |  |  |  |
| C=CCn1c(SCCC)nc2sc3c(c2c1=O)CCc1ccccc1-3 |  |  |  |  | AC50 [4]: 1.1 µM (active) |
| C=CCn1c(SC/C(O)=C(/C#N)C(C)=N)nc2sc(C)c(C)c2c1=O |  |  | 6.33 µM (active) | 10 µM (active) | EC50 (Streptokinase A): > 150 µM (not active) |
| CCOC(=O)c1ccc(NC(=S)NN)cc1 |  |  |  |  | EC50 (Streptokinase A): > 150 µM (not active) |
| Oc1cccc(NC(=S)N=Nc2c(O)[nH]c3ccc(Br)cc23)c1 |  |  | 1.22 µM (active) | 4.54 µM (active) |  |
| CCc1ccc(/C=C2/SC(=S)N(CC(=O)Nc3nc4ccccc4s3)C2=O)cc1 |  |  | 2.87 µM (active) | 35.4 µM (active) | EC50 (Streptokinase A): > 150 µM (not active) |
| CCCCOc1ccc(C(=O)CCN2CCOCC2)cc1 | > 60 µM (not active) | 0.836 µM (active) |  |  |  |
| C=CCn1c(=O)c(C(=O)NCCc2ccccc2)c(O)c2ccccc21 |  |  |  |  | AC50 [4]: 5.39 µM (active) |
| COCc1cc(CN2CCCC(C(=O)c3cccc(C(F)(F)F)c3)C2)ccc1OC (stereo unspecified) | > 60 µM (inconclusive) | 0.1 µM (active) |  |  |  |
| COc1cccc2sc3cc(C#CC4(O)CCCCC4)ccc3c(=O)c12 |  |  |  |  | AC50 [4]: 2.4 µM (active) |
| Cc1ccc(-c2cc(C(F)F)n3ncc(C(=O)N4CCCCC4c4cccnc4)c3n2)cc1 (stereo unspecified) | > 60 µM (inconclusive) | 0.708 µM (active) |  |  |  |
| FC(F)(F)c1cccc(NC(=S)N(CCCN2CCCC2)Cc2cccn2Cc2ccc(Cl)cc2)c1 | > 60 µM (not active) | 2.15 µM (active) |  |  | AC50 [4]: 3.37 µM (active) |
| O=C1CC(NS(=O)(=O)c2ccc([N+](=O)[O-])cc2)CN1c1cccc(F)c1 (stereo unspecified) | > 60 µM (not active) | 1.08 µM (active) |  |  |  |
| CCc1ccc(NC2=NCC(c3ccccc3)S2)cc1 (stereo unspecified) |  |  | 8.39 µM (active) | 18.8 µM (active) | EC50 (Streptokinase A): > 150 µM (not active) |
| CCOC(=O)c1ccc(NC(S)=NN)cc1 |  |  | 9.57 µM (active) | > 150 µM (not active) |  |

From ChEMBL document CHEMBL1201862, “PubChem BioAssay data set” (2004)
